From PMC11391541, “Target-Directed Dynamic Combinatorial Chemistry Affords Binders of Mycobacterium tuberculosis IspE” (ACS Omega, 2024)
Values after ≈ are worked out from the molar mass of the structure shown. Values joined by “and” are separate entries in the source; they are usually repeats but may differ in a detail not shown here. Identical values can stand only once.

Tests used:
MtbIspE = MtbIspE (Mycobacterium tuberculosis, UniProt P9WKG7); test: MtbIspE binding study via MicroScale Thermophoresis (MST); conditions: for MtbIspE binding at 20 μM: MST, 20 μM ligand, 200 nM MtbIspE, triplicate, qualitative
Chain of MtbIspE (P9WKG7 whole entry): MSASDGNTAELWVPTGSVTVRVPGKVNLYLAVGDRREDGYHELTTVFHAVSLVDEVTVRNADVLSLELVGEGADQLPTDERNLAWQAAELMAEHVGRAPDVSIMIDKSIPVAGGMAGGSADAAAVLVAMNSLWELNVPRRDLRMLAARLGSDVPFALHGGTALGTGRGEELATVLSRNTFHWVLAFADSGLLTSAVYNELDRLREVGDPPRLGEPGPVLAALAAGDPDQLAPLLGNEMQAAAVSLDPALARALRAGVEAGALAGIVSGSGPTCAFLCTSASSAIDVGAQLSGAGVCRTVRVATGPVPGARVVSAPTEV

in vitro = conditions: human, HepG2 CC50, HepG2, 48 h, MTT
MtbH37Rv = format: cell-based, Mycobacterium tuberculosis
physchem = conditions: aqueous with cosolvent or surfactant or cyclodextrin, kinetic from dmso stock, solubility 5% DMSO in PBS
[1] = solubility in M. tuberculosis 7H9 growth medium; format: physicochemical; conditions: M. tuberculosis 7H9 growth medium, plasma or biological fluid, kinetic from dmso stock; Mtb 7H9 growth medium
Method: Prior to biological evaluation of the tdDCC hits, we tested their solubility in a standard buffer as well as in M. tuberculosis 7H9 growth medium. […] Regrettably, with 3.3 μM the least soluble compound is E1, making our most amplified and promising compound unsuitable for biological evaluation. We assessed the solubility in Mtb growth medium given that it is a complex, nutrient-rich environment with a distinct solubility profile. However, the trend continued, only seven hits are soluble at 8 μM or above, the remaining five compounds, including E1, were not eligible for antitubercular activity testing (Table 1).
Determination of in vitro anti-tubercular activity and solubility in 7H9 medium Anti-tubercular tests were performed as previously described .1 In brief, 7H9 complete medium (BD Difco; Becton Dickinson, Maryland,USA) supplemented with 10% OADC (BD), 0.2% glycerol, and 0.05% Tween80 as previously described ,3 was used to culture Mycobacterium tuberculosis (Mtb) strain H37Rv (ATCC 25618) carrying a mCherry -expressing plasmid (pCherry10 ).4 Cultures were harvested at mid-log phase and frozen in aliquots at – 80 °C. Prior to testing aliquots were thawed followed by centrifugation and the pellet was resuspended in 7H9 medium with 10% OADC (without glycerol and Tween80). This was further thoroughly resuspended by passing it through a syringe with a 26 -gauge needle to avoid clumping of the bacteria. 2×10^5 CFU (colony forming units) were then cultured in a total volume of 100 μl culture medium (triplicates) to test the non-precipitating compounds for the anti-tubercular activity at the concentrations indicated. For these assays, 96-well flat clear bottom black polystyrene microplates (Corning® CellBIND®, Merck, New York, USA) wer e used. Each plate had Rifampicin (at 1 μg/ml and 0.1 μg/ml) (National Reference Center, Borstel) as a reference compound. Plates were sealed with an air -permeable membrane (Porvair Sciences, Wrexham, UK) in a 37 °C incubator with mild agitation (TiMix5, Edmund Bühler, Germany). The activity of compounds was determined after 7 days by measuring the bacterial growth as relative light units (RLU) from the fluorescence intensity obtained at an excitation wavelength of 575 nm and an emission wavelength of 635 n m in a microplate reader (Synergy 2, BioTek Instruments, Vermont, USA). Two independent experiments (each in triplicates) were performed, and all values were normalized to untreated control sample (100%) in each experiment.
To obtain information regarding the toxicity of our compounds, their impact on the viability of human cells was investigated. HepG2 cells (2x10^4 cells per well) were seeded in 96 -well, flat-bottomed culture plates in 100 µL culture medium (DMEM containing 10% fetal calve serum, 1% penicillin -streptomycin). Twenty-four hours after seeding the cells, medium was removed and replaced by medium containing test compounds in a final DMSO concentration of 1%. Compounds were tested in duplicates at a single concentration or, for CC50 determination, at 8 concentrations that were prepared via 2 -fold serial dilutions in 1% DMSO/medium. Epirubicin and doxorubicin were used as positive controls in serial dilutions starting from 10 µM, and rifampicin was used as a negative control (at 100 µM). The living cell mass was determined 48 h after treatment with compounds by adding 0.1 volumes of 3 -(4,5-dimethylthiazol-2-yl)-2,5-diphenyltetrazolium bromide (MTT) solution (5 mg/mL sterile PBS) (Sigma, St. Louis, MO) to the wells. After incubating the cells for 30 min at 37 °C (atmosphere containing 5% CO2), medium was removed and MTT crystals were dissolved in 75 µL of a solution containing 10% SDS and 0.5% acetic acid in DMSO. The optical density (OD) of the samples was determined photometrically at 570 nm in a PHERAstar Omega plate reader (BMG labtech, Ortenberg, Germany). To obtain percent viability for each sample, their ODs were related to those of DMSO controls. […]

fungi = tested on: fungi; set-up: method as in PMID 25943854; conditions: cited from earlier work

SMILES | MtbIspE binding at 20 μM (MtbIspE) | CC50 (in vitro) [µM] | MtbH37Rv MIC90 (MtbH37Rv) | solubility at 5 min (physchem) [µM] | solubility [1] [µM] | MtbIspE binding in saturation MST experiment (MtbIspE; saturation MST experiment) | antifungal properties (fungi)
COc1ccc(-c2cc(/C=N/NC(=O)c3cc(CC(C)C)n[nH]3)no2)cc1 [D6, (E)-3-Isobutyl-N′-((5-(4-methoxyphenyl)isoxazol-3-yl)methylene)-1H-pyrazole-5-carbohydrazide] | No | > 50 | no inh. at max. sol. | 20 ± 10 (≈ 7.35 µg/mL) | 16 | – | –
O=C(N/N=C/c1cc(Cl)ccc1O)c1ccncc1 [L1, (E)-N′-(5-Chloro-2-hydroxybenzylidene)isonicotinohydrazide] | did not bind and No | ~50 | no inh. at max. sol. | 108 ± 3 (≈ 29.8 µg/mL) | 16 | no binding | antifungal properties
O=C(N/N=C/c1ccc(C(F)(F)F)cc1)c1cccc(Cl)c1 [K4, (E)-3-Chloro-N′-(4-(trifluoromethyl)benzylidene)benzohydrazide] | binding in only one measurement and 1/3 | > 50 | no inh. at max. sol. | 21 ± 6 (≈ 6.86 µg/mL) | 8 | – | –
